Data as given in ChEMBL document CHEMBL5154806, “Synthesis and Profiling of Highly Selective Inhibitors of Methyltransferase DOT1L Based on Carbocyclic C-Nucleosides” (J Med Chem, 2022).
Calls of active or inactive are those of the source. The rule behind the calls is not given here.

What was measured:
[1] = Tmax in fasted BALB/c mouse at 5 mg/kg, iv administered upto 600 mins by HPLC-MS/MS analysis; assay type: ADME, organism-based; details: in vivo
[2] = Cmax in fasted BALB/c mouse at 5 mg/kg, iv administered upto 600 mins by HPLC-MS/MS analysis; assay type: ADME, organism-based; set-up: time < 600 min, dose 5 mg/kg, route iv; details: in vivo
[3] = AUC (0 to infinity) in fasted BALB/c mouse at 5 mg/kg, iv administered upto 600 mins by HPLC-MS/MS analysis; assay type: ADME, organism-based; set-up: dose 5 mg/kg, time < 600 min, route iv; details: in vivo
[4] = Clearance in fasted BALB/c mouse at 5 mg/kg, iv administered upto 600 mins by HPLC-MS/MS analysis; assay type: ADME, organism-based; details: in vivo
[5] = Microsomal stability in BALB/c mouse liver microsomes assessed as intrinsic clearance; assay type: ADME, Microsome; details: read-out: CLH
[6] = tested on: OCI-AML-3; experiment: Cytotoxicity against human OCI-AML-3 cells assessed as reduction of cell viability at 20 to 40 uM incubated for 5 to 15 days by DiOC6/ propidium staining based flow cytometry analysis; assay type: functional; details: dose 20-40 µM, time 5-15 day
[7] = AUC (0 to t) in fasted BALB/c mouse at 5 mg/kg, iv administered upto 600 mins by HPLC-MS/MS analysis; assay type: ADME, organism-based; set-up: time < 600 min, dose 5 mg/kg, route iv; details: in vivo
[8] = Acute toxicity in BALB/c mouse at 20 mg/kg,iv; assay type: organism-based; details: in vivo
[9] = Elimination rate constant in fasted BALB/c mouse at 5 mg/kg, iv administered upto 600 mins by HPLC-MS/MS analysis; assay type: ADME, organism-based; details: BALB/c, in vivo
[10] = target: T1, Histone-lysine N-methyltransferase, H3 lysine-79 specific (Homo sapiens, UniProt Q8TEK3); experiment: Inhibition of DOT1L in human SU-DHL-4 cells assessed as decrease in H3K79 methylation at 1 to 10 uM using histone H3 as substrate incubated for 5 days by immunoblotting assay; assay type: cell-based; details: dose 1-10 µM, time 5.0 day, DDE = dose-dependent effect
Target sequence in this assay (Q8TEK3 whole entry, looked up): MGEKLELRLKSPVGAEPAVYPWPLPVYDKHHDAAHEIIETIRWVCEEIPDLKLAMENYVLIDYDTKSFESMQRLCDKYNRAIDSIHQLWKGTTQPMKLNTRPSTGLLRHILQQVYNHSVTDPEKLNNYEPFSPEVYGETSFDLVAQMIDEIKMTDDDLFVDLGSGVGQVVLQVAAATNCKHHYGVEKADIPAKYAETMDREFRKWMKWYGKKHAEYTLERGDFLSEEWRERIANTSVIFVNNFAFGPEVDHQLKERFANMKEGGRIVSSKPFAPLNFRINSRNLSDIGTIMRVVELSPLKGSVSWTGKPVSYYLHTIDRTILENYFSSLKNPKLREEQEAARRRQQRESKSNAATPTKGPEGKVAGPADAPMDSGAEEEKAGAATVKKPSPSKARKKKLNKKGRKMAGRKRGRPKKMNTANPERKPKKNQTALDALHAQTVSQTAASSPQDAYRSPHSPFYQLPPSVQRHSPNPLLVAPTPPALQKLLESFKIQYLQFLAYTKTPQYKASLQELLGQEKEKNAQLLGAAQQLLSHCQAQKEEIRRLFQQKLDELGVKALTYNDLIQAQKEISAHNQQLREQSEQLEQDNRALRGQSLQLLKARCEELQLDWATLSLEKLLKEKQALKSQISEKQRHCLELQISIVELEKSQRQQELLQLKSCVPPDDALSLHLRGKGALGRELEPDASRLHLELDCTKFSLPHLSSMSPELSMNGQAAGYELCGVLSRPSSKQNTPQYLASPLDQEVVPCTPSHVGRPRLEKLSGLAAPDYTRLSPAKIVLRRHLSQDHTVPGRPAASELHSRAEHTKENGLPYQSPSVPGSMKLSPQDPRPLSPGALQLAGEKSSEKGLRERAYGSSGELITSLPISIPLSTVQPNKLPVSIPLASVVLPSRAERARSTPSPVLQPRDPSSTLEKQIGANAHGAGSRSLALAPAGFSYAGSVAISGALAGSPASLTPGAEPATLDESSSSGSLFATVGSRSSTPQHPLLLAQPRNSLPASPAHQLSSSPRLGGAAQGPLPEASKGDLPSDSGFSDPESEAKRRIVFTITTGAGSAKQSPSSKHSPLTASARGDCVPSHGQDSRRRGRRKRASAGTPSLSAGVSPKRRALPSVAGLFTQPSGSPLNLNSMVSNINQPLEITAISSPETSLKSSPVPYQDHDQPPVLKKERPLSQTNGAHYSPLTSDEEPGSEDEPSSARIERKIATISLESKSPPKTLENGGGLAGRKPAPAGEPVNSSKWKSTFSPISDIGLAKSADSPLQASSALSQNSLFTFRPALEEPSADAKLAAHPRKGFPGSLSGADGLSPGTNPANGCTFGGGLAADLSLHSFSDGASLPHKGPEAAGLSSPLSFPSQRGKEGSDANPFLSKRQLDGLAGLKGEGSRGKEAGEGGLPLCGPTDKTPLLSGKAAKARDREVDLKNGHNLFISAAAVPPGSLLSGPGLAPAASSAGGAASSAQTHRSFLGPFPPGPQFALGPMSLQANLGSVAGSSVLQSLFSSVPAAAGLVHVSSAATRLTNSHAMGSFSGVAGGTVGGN

[11] = target: T1, Histone-lysine N-methyltransferase, H3 lysine-79 specific; experiment: Binding affinity to human DOT1L assessed as binding free energy difference
Target sequence in this assay (Q8TEK3 whole entry, looked up): as above

[12] = Cmax in fasted BALB/c mouse at 20 mg/kg, iv administered upto 600 mins by HPLC-MS/MS analysis; assay type: ADME, organism-based; set-up: time < 600 min, dose 20 mg/kg, route iv; details: in vivo
[13] = Elimination rate constant in fasted BALB/c mouse at 20 mg/kg, iv administered upto 600 mins by HPLC-MS/MS analysis; assay type: ADME, organism-based; details: in vivo
[14] = target: T1, Histone-lysine N-methyltransferase, H3 lysine-79 specific; experiment: Inhibition of DOT1L in human OCI-AML5 cells assessed as decrease in H3K79 methylation at 1 to 10 uM using histone H3 as substrate incubated for 3 days by immunoblotting assay; assay type: cell-based; details: dose 1-10 µM, time 3.0 day, DDE = dose-dependent effect
Target sequence in this assay (Q8TEK3 whole entry, looked up): as above

[15] = Half life in fasted BALB/c mouse at 5 mg/kg, iv administered upto 600 mins by HPLC-MS/MS analysis; assay type: ADME, organism-based; details: BALB/c, in vivo
[16] = tested on: MOLM-13; experiment: Downregulation of MEIS1 gene in human MOLM-13 cells at 10 uM measured after 3 to 10 days by qPCR analysis; assay type: functional, cell-based; details: time 3-10 day
[17] = Clearance in fasted BALB/c mouse at 20 mg/kg, iv administered upto 600 mins by HPLC-MS/MS analysis; assay type: ADME, organism-based; details: in vivo
[18] = tested on: SK-N-MC; experiment: Cytotoxicity against human SK-N-MC cells assessed as reduction of cell viability up to 10 uM incubated for 72 hrs by celltiter-glo assay; assay type: functional, cell-based
[19] = Metabolic stability in BALB/c mouse liver microsomes assessed as parent compound remaining measured after 40 mins; assay type: ADME, Microsome; details: read-out: Stability
[20] = AUC (0 to t) in fasted BALB/c mouse at 20 mg/kg, iv administered upto 600 mins by HPLC-MS/MS analysis; assay type: ADME, organism-based; set-up: dose 20 mg/kg, time < 600 min, route iv; details: in vivo
[21] = tested on: MOLM-13; experiment: Downregulation of HOXA9 gene in human MOLM-13 cells at 10 uM measured after 3 to 10 days by qPCR analysis; assay type: functional, cell-based; details: time 3-10 day
[22] = Half life in fasted BALB/c mouse at 20 mg/kg, iv administered upto 600 mins by HPLC-MS/MS analysis; assay type: ADME, organism-based; details: in vivo
[23] = target: T1, Histone-lysine N-methyltransferase, H3 lysine-79 specific; experiment: Inhibition of human DOT1L by hotspot PMT activity assay
Target sequence in this assay (Q8TEK3 whole entry): as the sequence (Q8TEK3 whole entry, looked up) above

[24] = target: T1, Histone-lysine N-methyltransferase, H3 lysine-79 specific; experiment: Inhibition of DOT1L in human SU-DHL-4 cells assessed as decrease in H3K79 methylation at 1 to 10 uM using histone H3 as substrate incubated for 3 days by immunoblotting assay; assay type: cell-based; details: dose 1-10 µM, time 3.0 day, DDE = dose-dependent effect
Target sequence in this assay (Q8TEK3 whole entry, looked up): as above

[25] = Volume of distribution in fasted BALB/c mouse at 20 mg/kg, iv administered upto 600 mins by HPLC-MS/MS analysis; assay type: ADME, organism-based; details: in vivo
[26] = AUC (0 to infinity) in fasted BALB/c mouse at 20 mg/kg, iv administered upto 600 mins by HPLC-MS/MS analysis; assay type: ADME, organism-based; set-up: dose 20 mg/kg, time < 600 min, route iv; details: in vivo
[27] = tested on: MOLM-13; experiment: Cytotoxicity against human MOLM-13 cells assessed as reduction of cell viability at 20 to 40 uM incubated for 5 to 15 days by DiOC6/ propidium staining based flow cytometry analysis; assay type: functional; details: dose 20-40 µM, time 5-15 day
[28] = tested on: SUD4; experiment: Cytotoxicity against human SU-DHL-4 cells assessed as reduction of cell viability at 20 to 40 uM incubated for 5 to 15 days by DiOC6/ propidium staining based flow cytometry analysis; assay type: functional; details: dose 20-40 µM, time 5-15 day
[29] = target: T1, Histone-lysine N-methyltransferase, H3 lysine-79 specific; experiment: Inhibition of DOT1L in human MOLM-13 cells assessed as decrease in H3K79 methylation at 1 to 10 uM using histone H3 as substrate incubated for 3 days by immunoblotting assay; assay type: cell-based; details: dose 1-10 µM, time 3.0 day, DDE = dose-dependent effect
Target sequence in this assay (Q8TEK3 whole entry, looked up): as above

[30] = Tmax in fasted BALB/c mouse at 20 mg/kg, iv administered upto 600 mins by HPLC-MS/MS analysis; assay type: ADME, organism-based; details: in vivo
[31] = target: T1, Histone-lysine N-methyltransferase, H3 lysine-79 specific; experiment: Inhibition of DOT1L in human MOLM-13 cells assessed as decrease in H3K79 methylation at 1 to 10 uM using histone H3 as substrate incubated for 5 days by immunoblotting assay; assay type: cell-based; details: dose 1-10 µM, time 5.0 day, DDE = dose-dependent effect
Target sequence in this assay (Q8TEK3 whole entry, looked up): as above

[32] = tested on: SU-DHL-5; experiment: Cytotoxicity against human SU-DHL-5 cells assessed as reduction of cell viability up to 10 uM incubated for 72 hrs by celltiter-glo assay; assay type: functional, cell-based; details: SU-DHL-5, 72 h
[33] = tested on: MV4-11; experiment: Cytotoxicity against human MV4-11 cells assessed as reduction of cell viability up to 10 uM incubated for 72 hrs by celltiter-glo assay; assay type: functional, cell-based; details: MV4-11, 72 h
[34] = target: T1, Histone-lysine N-methyltransferase, H3 lysine-79 specific; experiment: Inhibition of DOT1L in human OCI-AML5 cells assessed as decrease in H3K79 methylation at 1 to 10 uM using histone H3 as substrate incubated for 5 days by immunoblotting assay; assay type: cell-based; details: dose 1-10 µM, time 5.0 day, DDE = dose-dependent effect
[35] = tested on: MOLM-13; experiment: Cytotoxicity against human MOLM-13 cells assessed as metabolic activity at 1 to 40 uM incubated for 10 to 15 days by WST-1 assay; assay type: functional, cell-based; details: dose 1-40 µM, time 10-15 day
[36] = tested on: MOLM-13; experiment: Cytotoxicity against human MOLM-13 cells assessed as reduction of cell viability up to 10 uM incubated for 72 hrs by celltiter-glo assay; assay type: functional, cell-based; details: MOLM-13, 72 h
[37] = Volume of distribution in fasted BALB/c mouse at 5 mg/kg, iv administered upto 600 mins by HPLC-MS/MS analysis; assay type: ADME, organism-based; details: in vivo

CC(C)N(C[C@H]1C[C@@H](c2ccc3c(N)ncnn23)[C@H](O)[C@@H]1O)[C@H]1C[C@@H](CCc2nc3cc(C(C)(C)C)ccc3[nH]2)C1
Tmax [1]: 5 min | Cmax [2]: 20.6 µg/mL | AUC(0-inf) [3]: 5850 ng·h/mL | clearance [4]: 14.2 mL/min/kg | microsomal CLint [5]: 56 µL/min/mg | Activity [6]: Active | AUC(0-t) at 10 h [7]: 5800 ng·h/mL | Activity [8]: Non-Toxic | k el at 10 h [9]: 0.000202 s⁻¹ | Activity [10]: Dde | deltaG [11]: -0.717 kcal/mol | Cmax [12]: 91.2 µg/mL | k el at 10 h [13]: 0.000123 s⁻¹ | Activity [14]: Dde | half-life [15]: 57.2 min | Activity [16]: Active | clearance [17]: 9.54 mL/min/kg | EC50 [18]: 8.8 µM | remaining at 40 min [19]: 41% | AUC(0-t) at 10 h [20]: 34700 ng·h/mL | Activity [21]: Active | half-life [22]: 93.6 min | IC50 [23]: 0.0021 µM | Activity [24]: Dde | Vd [25]: 1.29 L/kg | AUC(0-inf) [26]: 35000 ng·h/mL | Activity [27]: Active | Activity [28]: Active | Activity [29]: Dde | Tmax [30]: 5 min | Activity [31]: Dde | EC50 [32]: 9 µM | EC50 [33]: 1.7 µM | Activity [34]: Dde | Activity [35]: Active | EC50 [36]: 7.7 µM | Vd [37]: 1.18 L/kg
